Measured values as given in the kinase profiling compilation of Christmann-Franck et al. (2016).
“And” between values parts separate entries of the source, which are not always exact repeats. Identical values can stand only once.

Assays:
Assay in all cases: radiometric filter-binding kinase assay, Kinase HotSpot
Conditions in all cases: compound 0.5 µM; ATP 10 µM
GRK4 (human) = GRK4 (human) (UniProt P32298)
PRKCD (human) = PRKCD (human) (UniProt Q05655)
IKBKB (human) = IKBKB (human) (UniProt O14920)
SRMS (human) = SRMS (human) (UniProt Q9H3Y6)
CDK3 CCNE1 (human) = CDK3 CCNE1 (human) (UniProt Q00526+P24864)
NEK1 (human) = NEK1 (human) (UniProt Q96PY6)
NLK (human) = NLK (human) (UniProt Q9UBE8)
AKT3 (human) = AKT3 (human) (UniProt Q9Y243)
RPS6KB1 (human) = RPS6KB1 (human) (UniProt P23443)
MAP3K5 (human) = MAP3K5 (human) (UniProt Q99683)
PRKX (human) = PRKX (human) (UniProt P51817)
TAOK2 (human) = TAOK2 (human) (UniProt Q9UL54)
TAOK2 (human), sequence (Q9UL54 whole entry, looked up): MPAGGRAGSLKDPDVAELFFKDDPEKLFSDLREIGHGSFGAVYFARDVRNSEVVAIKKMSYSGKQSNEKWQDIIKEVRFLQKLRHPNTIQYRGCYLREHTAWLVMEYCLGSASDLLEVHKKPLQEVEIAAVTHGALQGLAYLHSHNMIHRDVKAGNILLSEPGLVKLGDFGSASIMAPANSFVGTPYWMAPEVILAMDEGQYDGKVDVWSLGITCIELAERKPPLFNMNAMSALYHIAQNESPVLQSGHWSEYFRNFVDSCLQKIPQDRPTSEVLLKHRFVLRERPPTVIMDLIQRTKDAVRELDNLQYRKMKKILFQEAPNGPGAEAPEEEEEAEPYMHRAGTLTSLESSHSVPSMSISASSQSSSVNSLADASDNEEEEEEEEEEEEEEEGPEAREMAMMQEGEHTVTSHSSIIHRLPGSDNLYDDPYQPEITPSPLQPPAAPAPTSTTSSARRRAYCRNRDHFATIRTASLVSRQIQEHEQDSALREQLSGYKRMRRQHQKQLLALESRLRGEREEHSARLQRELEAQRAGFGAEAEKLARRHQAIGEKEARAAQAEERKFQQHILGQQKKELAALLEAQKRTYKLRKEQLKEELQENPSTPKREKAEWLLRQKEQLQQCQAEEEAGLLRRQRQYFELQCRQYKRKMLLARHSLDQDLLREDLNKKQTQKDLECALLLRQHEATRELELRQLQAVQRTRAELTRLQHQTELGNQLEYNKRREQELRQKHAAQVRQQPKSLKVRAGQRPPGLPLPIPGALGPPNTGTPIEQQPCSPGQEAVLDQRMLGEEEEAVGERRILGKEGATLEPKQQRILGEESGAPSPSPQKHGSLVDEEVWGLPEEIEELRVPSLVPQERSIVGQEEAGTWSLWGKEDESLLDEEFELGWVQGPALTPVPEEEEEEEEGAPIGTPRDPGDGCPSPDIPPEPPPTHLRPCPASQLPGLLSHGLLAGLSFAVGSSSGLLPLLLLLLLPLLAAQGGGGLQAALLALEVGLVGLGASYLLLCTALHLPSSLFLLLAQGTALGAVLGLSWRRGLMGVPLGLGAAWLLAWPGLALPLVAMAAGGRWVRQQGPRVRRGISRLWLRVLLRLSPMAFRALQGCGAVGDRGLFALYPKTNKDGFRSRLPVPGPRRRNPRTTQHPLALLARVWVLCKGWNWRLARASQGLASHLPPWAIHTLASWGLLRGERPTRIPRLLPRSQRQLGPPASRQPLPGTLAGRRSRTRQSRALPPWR

ROS1 (human) = ROS1 (human) (UniProt P08922)
TBK1 (human) = TBK1 (human) (UniProt Q9UHD2)
CLK2 (human) = CLK2 (human) (UniProt P49760)
LYN (human) = LYN (human) (UniProt P07948)
ULK1 (human) = ULK1 (human) (UniProt O75385)
PDGFRA (human) = PDGFRA (human) (UniProt P16234)
MLTK (human) = MLTK (human) (UniProt Q9NYL2)
KIT (human) = KIT (human) (UniProt P10721)
KIT (human), sequence (P10721 whole entry, looked up): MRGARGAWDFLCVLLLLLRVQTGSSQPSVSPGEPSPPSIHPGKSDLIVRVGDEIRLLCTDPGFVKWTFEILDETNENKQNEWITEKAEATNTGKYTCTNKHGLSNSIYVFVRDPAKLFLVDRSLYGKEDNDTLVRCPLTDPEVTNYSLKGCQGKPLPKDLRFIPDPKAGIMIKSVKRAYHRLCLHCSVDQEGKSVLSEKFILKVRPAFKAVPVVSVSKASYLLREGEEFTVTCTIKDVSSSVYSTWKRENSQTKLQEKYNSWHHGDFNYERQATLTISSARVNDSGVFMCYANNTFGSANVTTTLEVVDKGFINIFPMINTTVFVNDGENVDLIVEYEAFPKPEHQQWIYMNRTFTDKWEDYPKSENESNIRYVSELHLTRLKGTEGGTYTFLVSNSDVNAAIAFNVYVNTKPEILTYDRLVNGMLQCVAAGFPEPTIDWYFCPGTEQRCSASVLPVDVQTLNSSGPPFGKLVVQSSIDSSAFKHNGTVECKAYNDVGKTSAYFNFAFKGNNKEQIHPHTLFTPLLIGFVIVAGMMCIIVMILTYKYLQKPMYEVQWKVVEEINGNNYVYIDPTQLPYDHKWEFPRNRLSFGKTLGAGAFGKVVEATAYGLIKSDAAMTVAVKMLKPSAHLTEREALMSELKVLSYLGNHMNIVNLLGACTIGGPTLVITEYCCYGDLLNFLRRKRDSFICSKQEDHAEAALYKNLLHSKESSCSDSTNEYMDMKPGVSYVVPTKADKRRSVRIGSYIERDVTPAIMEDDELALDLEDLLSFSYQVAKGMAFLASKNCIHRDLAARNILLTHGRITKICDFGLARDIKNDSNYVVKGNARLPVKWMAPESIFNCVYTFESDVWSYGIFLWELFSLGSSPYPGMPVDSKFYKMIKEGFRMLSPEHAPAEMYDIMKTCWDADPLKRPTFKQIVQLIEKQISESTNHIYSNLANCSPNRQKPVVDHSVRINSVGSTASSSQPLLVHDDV

GRK5 (human) = GRK5 (human) (UniProt P34947)
LCK (human) = LCK (human) (UniProt P06239)
LCK (human), sequence (P06239 whole entry, looked up): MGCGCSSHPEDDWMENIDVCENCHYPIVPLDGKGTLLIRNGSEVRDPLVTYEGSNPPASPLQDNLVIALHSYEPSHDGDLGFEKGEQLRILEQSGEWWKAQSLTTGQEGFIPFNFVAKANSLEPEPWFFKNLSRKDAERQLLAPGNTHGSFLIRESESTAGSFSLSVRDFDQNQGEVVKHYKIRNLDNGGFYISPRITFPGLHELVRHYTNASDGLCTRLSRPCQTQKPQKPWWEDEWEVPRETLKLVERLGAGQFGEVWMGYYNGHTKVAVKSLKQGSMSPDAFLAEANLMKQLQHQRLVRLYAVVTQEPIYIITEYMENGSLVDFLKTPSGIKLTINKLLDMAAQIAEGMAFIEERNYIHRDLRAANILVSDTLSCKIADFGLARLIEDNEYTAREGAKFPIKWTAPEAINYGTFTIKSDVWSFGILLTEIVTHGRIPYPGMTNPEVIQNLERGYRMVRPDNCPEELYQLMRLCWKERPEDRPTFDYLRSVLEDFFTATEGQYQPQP

CAMK2B (human) = CAMK2B (human) (UniProt Q13554)
CAMK2B (human), sequence (Q13554 whole entry, looked up): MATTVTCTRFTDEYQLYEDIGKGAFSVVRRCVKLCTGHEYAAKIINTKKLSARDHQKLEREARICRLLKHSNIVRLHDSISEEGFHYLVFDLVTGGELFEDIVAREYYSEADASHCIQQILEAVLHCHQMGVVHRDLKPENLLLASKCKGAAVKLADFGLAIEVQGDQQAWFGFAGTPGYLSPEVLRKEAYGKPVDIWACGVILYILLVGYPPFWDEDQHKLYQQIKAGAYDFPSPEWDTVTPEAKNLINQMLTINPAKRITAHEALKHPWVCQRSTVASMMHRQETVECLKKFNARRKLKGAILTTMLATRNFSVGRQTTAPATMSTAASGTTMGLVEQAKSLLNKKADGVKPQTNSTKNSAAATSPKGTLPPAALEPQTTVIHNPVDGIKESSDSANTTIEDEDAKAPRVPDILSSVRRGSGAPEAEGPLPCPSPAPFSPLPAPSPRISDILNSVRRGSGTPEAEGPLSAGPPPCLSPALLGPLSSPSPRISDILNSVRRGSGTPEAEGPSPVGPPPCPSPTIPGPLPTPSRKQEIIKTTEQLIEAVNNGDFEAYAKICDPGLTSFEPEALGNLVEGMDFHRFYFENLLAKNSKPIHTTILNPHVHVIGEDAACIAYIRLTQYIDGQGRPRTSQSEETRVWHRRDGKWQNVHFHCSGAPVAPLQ

AKT1 (human) = AKT1 (human) (UniProt P31749)
BMX (human) = BMX (human) (UniProt P51813)
PRKG2 (human) = PRKG2 (human) (UniProt Q13237)
OXSR1 (human) = OXSR1 (human) (UniProt O95747)
DDR2 (human) = DDR2 (human) (UniProt Q16832)
NEK3 (human) = NEK3 (human) (UniProt P51956)
NUAK1 (human) = NUAK1 (human) (UniProt O60285)
BLK (human) = BLK (human) (UniProt P51451)
PRKCG (human) = PRKCG (human) (UniProt P05129)
PRKCH (human) = PRKCH (human) (UniProt P24723)
PRKCH (human), sequence (P24723 whole entry, looked up): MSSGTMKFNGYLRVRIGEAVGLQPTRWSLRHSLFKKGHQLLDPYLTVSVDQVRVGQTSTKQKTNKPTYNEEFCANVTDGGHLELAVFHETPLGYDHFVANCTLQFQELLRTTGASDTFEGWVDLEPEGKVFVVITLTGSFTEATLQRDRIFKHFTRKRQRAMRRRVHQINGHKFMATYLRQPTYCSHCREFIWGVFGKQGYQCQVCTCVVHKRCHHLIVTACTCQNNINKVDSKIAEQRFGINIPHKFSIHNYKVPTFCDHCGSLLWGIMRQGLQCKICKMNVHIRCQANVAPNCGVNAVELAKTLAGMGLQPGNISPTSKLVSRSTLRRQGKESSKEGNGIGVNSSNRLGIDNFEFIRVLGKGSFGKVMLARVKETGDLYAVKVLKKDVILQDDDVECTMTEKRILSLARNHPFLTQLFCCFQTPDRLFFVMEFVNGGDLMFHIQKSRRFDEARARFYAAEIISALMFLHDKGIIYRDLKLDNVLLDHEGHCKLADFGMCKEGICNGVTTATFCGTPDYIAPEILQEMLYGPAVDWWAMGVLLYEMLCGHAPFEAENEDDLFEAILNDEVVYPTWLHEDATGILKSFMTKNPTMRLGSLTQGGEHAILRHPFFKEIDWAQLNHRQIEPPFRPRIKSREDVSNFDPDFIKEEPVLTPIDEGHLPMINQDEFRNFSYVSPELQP

EPHA8 (human) = EPHA8 (human) (UniProt P29322)
SRPK2 (human) = SRPK2 (human) (UniProt P78362)
CDC42BPA (human) = CDC42BPA (human) (UniProt Q5VT25)
KDR (human) = KDR (human) (UniProt P35968)
SIK2 (human) = SIK2 (human) (UniProt Q9H0K1)
SIK2 (human), sequence (Q9H0K1 whole entry, looked up): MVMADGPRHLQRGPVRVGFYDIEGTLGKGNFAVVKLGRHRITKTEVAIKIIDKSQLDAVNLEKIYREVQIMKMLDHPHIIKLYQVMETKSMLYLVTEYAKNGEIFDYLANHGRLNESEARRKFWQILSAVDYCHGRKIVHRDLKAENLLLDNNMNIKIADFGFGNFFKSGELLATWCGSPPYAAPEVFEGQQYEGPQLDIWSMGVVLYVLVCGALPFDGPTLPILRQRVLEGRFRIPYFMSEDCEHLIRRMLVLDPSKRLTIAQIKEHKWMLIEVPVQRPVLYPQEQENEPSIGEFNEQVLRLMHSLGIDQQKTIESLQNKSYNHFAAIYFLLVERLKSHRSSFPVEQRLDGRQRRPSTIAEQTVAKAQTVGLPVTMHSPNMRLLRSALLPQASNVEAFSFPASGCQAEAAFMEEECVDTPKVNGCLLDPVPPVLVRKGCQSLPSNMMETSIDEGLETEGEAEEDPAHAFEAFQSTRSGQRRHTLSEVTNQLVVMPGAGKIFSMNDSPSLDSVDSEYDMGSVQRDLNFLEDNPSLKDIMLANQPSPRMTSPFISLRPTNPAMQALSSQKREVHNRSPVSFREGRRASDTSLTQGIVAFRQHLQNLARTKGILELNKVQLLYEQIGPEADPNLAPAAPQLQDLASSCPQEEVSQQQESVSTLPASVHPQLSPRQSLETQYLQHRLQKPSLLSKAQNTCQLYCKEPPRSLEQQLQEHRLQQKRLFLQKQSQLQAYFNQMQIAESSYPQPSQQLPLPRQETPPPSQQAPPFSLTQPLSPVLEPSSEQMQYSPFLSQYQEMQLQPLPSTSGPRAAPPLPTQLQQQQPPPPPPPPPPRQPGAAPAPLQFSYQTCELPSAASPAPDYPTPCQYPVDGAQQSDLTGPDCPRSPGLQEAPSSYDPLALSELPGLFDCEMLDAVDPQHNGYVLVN

GRK7 (human) = GRK7 (human) (UniProt Q8WTQ7)
EPHA2 (human) = EPHA2 (human) (UniProt P29317)
CSK (human) = CSK (human) (UniProt P41240)
PTK2 (human) = PTK2 (human) (UniProt Q05397)

O=C1Nc2ccccc2/C1=C\c1c(Cl)[nH]c2ccccc12
residual activity (GRK4 (human)): 102% | residual activity (PRKCD (human)): 88.4% | residual activity (IKBKB (human)): 106% | residual activity (SRMS (human)): 84.2% | residual activity (CDK3 CCNE1 (human)): 94.1% | residual activity (NEK1 (human)): 96.7% | residual activity (NLK (human)): 107% | residual activity (AKT3 (human)): 93.6% | residual activity (RPS6KB1 (human)): 99.7% | residual activity (MAP3K5 (human)): 107% | residual activity (PRKX (human)): 106% | residual activity (TAOK2 (human)): 104% | residual activity (ROS1 (human)): 109% | residual activity (TBK1 (human)): 95.9% | residual activity (CLK2 (human)): 92.7% | residual activity (LYN (human)): 93.6% and 99.7% | residual activity (ULK1 (human)): 106% | residual activity (PDGFRA (human)): 88.7% | residual activity (MLTK (human)): 99.2% | residual activity (KIT (human)): 90.2% | residual activity (GRK5 (human)): 109% | residual activity (LCK (human)): 95.5% | residual activity (CAMK2B (human)): 108% | residual activity (AKT1 (human)): 94% | residual activity (BMX (human)): 99.8% | residual activity (PRKG2 (human)): 71.7% | residual activity (OXSR1 (human)): 89.1% | residual activity (DDR2 (human)): 92.7% | residual activity (NEK3 (human)): 91.2% | residual activity (NUAK1 (human)): 86% | residual activity (BLK (human)): 95.4% | residual activity (PRKCG (human)): 89.2% | residual activity (PRKCH (human)): 73.6% | residual activity (EPHA8 (human)): 103% | residual activity (SRPK2 (human)): 94.4% | residual activity (CDC42BPA (human)): 95.7% | residual activity (KDR (human)): 96.3% | residual activity (SIK2 (human)): 103% | residual activity (GRK7 (human)): 106% | residual activity (EPHA2 (human)): 97.3% | residual activity (CSK (human)): 101% | residual activity (PTK2 (human)): 101%

CCCNC(=O)Nc1ccc(Oc2ncnc3cc(OC)c(OC)cc23)cc1Cl
residual activity (GRK4 (human)): 94.4% | residual activity (PRKCD (human)): 90.1% | residual activity (IKBKB (human)): 100% | residual activity (SRMS (human)): 105% | residual activity (CDK3 CCNE1 (human)): 94% | residual activity (NEK1 (human)): 91.8% | residual activity (NLK (human)): 90.7% | residual activity (AKT3 (human)): 88.9% | residual activity (RPS6KB1 (human)): 90.6% | residual activity (MAP3K5 (human)): 102% | residual activity (PRKX (human)): 100% | residual activity (TAOK2 (human)): 94.5% | residual activity (ROS1 (human)): 97.6% | residual activity (TBK1 (human)): 90% | residual activity (CLK2 (human)): 89.5% | residual activity (LYN (human)): 75.5% and 94.1% | residual activity (ULK1 (human)): 83.2% | residual activity (PDGFRA (human)): 92.2% | residual activity (MLTK (human)): 103% | residual activity (KIT (human)): 39.2% | residual activity (GRK5 (human)): 105% | residual activity (LCK (human)): 81.8% | residual activity (CAMK2B (human)): 94.9% | residual activity (AKT1 (human)): 93% | residual activity (BMX (human)): 93.6% | residual activity (PRKG2 (human)): 97% | residual activity (OXSR1 (human)): 96.5% | residual activity (DDR2 (human)): 67.6% | residual activity (NEK3 (human)): 93.8% | residual activity (NUAK1 (human)): 92.3% | residual activity (BLK (human)): 96.8% | residual activity (PRKCG (human)): 120% | residual activity (PRKCH (human)): 101% | residual activity (EPHA8 (human)): 105% | residual activity (SRPK2 (human)): 91.1% | residual activity (CDC42BPA (human)): 77.8% | residual activity (KDR (human)): 19.7% | residual activity (SIK2 (human)): 101% | residual activity (GRK7 (human)): 94.7% | residual activity (EPHA2 (human)): 104% | residual activity (CSK (human)): 100% | residual activity (PTK2 (human)): 99.6%

O=c1cc(N2CCNCC2)oc2c(-c3ccccc3)cccc12
residual activity (GRK4 (human)): 106% | residual activity (PRKCD (human)): 99.6% | residual activity (IKBKB (human)): 103% | residual activity (SRMS (human)): 104% | residual activity (CDK3 CCNE1 (human)): 96.9% | residual activity (NEK1 (human)): 82.8% | residual activity (NLK (human)): 98.8% | residual activity (AKT3 (human)): 102% | residual activity (RPS6KB1 (human)): 102% | residual activity (MAP3K5 (human)): 106% | residual activity (PRKX (human)): 99% | residual activity (TAOK2 (human)): 98.3% | residual activity (ROS1 (human)): 99.2% | residual activity (TBK1 (human)): 98.7% | residual activity (CLK2 (human)): 100% | residual activity (LYN (human)): 101% and 95.8% | residual activity (ULK1 (human)): 107% | residual activity (PDGFRA (human)): 97.4% | residual activity (MLTK (human)): 103% | residual activity (KIT (human)): 101% | residual activity (GRK5 (human)): 103% | residual activity (LCK (human)): 104% | residual activity (CAMK2B (human)): 108% | residual activity (AKT1 (human)): 103% | residual activity (BMX (human)): 98% | residual activity (PRKG2 (human)): 107% | residual activity (OXSR1 (human)): 85.6% | residual activity (DDR2 (human)): 95.5% | residual activity (NEK3 (human)): 106% | residual activity (NUAK1 (human)): 95.5% | residual activity (BLK (human)): 122% | residual activity (PRKCG (human)): 96.1% | residual activity (PRKCH (human)): 97% | residual activity (EPHA8 (human)): 98.1% | residual activity (SRPK2 (human)): 105% | residual activity (CDC42BPA (human)): 107% | residual activity (KDR (human)): 99.8% | residual activity (SIK2 (human)): 110% | residual activity (GRK7 (human)): 114% | residual activity (EPHA2 (human)): 108% | residual activity (CSK (human)): 89.7% | residual activity (PTK2 (human)): 99%

CS(=O)c1ccc(-c2nc(-c3ccc(F)cc3)c(-c3ccncc3)[nH]2)cc1 (configuration not stated)
residual activity (GRK4 (human)): 95.5% | residual activity (PRKCD (human)): 107% | residual activity (IKBKB (human)): 106% | residual activity (SRMS (human)): 102% | residual activity (CDK3 CCNE1 (human)): 94.6% | residual activity (NEK1 (human)): 94.7% | residual activity (NLK (human)): 53.8% | residual activity (AKT3 (human)): 102% | residual activity (RPS6KB1 (human)): 97.4% | residual activity (MAP3K5 (human)): 107% | residual activity (PRKX (human)): 99.3% | residual activity (TAOK2 (human)): 94% | residual activity (ROS1 (human)): 94.4% | residual activity (TBK1 (human)): 99.7% | residual activity (CLK2 (human)): 108% | residual activity (LYN (human)): 91.8% and 99.1% | residual activity (ULK1 (human)): 89.3% | residual activity (PDGFRA (human)): 98.8% | residual activity (MLTK (human)): 100% | residual activity (KIT (human)): 91.3% | residual activity (GRK5 (human)): 104% | residual activity (LCK (human)): 95% | residual activity (CAMK2B (human)): 97.6% | residual activity (AKT1 (human)): 102% | residual activity (BMX (human)): 94.4% | residual activity (PRKG2 (human)): 92.7% | residual activity (OXSR1 (human)): 102% | residual activity (DDR2 (human)): 103% | residual activity (NEK3 (human)): 92.2% | residual activity (NUAK1 (human)): 94.4% | residual activity (BLK (human)): 102% | residual activity (PRKCG (human)): 90% | residual activity (EPHA8 (human)): 101% | residual activity (SRPK2 (human)): 102% | residual activity (CDC42BPA (human)): 94.3% | residual activity (KDR (human)): 99.2% | residual activity (SIK2 (human)): 82.1% | residual activity (GRK7 (human)): 107% | residual activity (EPHA2 (human)): 94.8% | residual activity (CSK (human)): 87.7% | residual activity (PTK2 (human)): 95.5%
